Where two headings read alike, the source gives them in different places.
Key:
SARS-CoV-2 3CL protease = SARS-CoV-2 3CL protease (Severe acute respiratory syndrome coronavirus 2, UniProt P0DTD1); test: biochemical; settings: 50% SARS-CoV-2 3CL protease inhibitory concentration, read-out: IC50
SARS-CoV-2 = test: microbe, parasite or virus in culture; assay type: cell-based; settings: Severe acute respiratory syndrome coronavirus 2, VeroE6/TMPRSS2, 72 h, 50% SARS-CoV-2 infected cell death inhibitory concentration, VeroE6/TMPRSS2 cells, 3 days culture

Compound | IC50 (SARS-CoV-2 3CL protease; given as class symbols) [µM] | EC50 (SARS-CoV-2; class symbols) [µM] | IC50 (SARS-CoV-2 3CL protease; RapidFire MS) [µM] | EC50 (SARS-CoV-2; CellTiter-Glo 2.0) [µM]
Cc1cncc(-n2c(=O)nc(Nc3cc4c(cc3F)nc(C)n4C)n(Cc3ccc(F)c(C#N)c3)c2=O)c1 [II-0353] | < 0.1 | 1 to 10 |  | 
Cc1cncc(-n2c(=O)nc(Nc3ccc4nc(C)n(C)c4c3)n(Cc3ccc(F)c(C#N)c3)c2=O)c1 [II-0354] | < 0.1 | 1 to 10 |  | 
Cc1cncc(-n2c(=O)nc(Nc3cc4cn(CC(F)F)nc4cc3F)n(Cc3cc(F)c(F)cc3F)c2=O)c1 [II-0355] | < 0.1 | < 1 |  | 
Cc1cncc(-n2c(=O)nc(Nc3cc4c(cc3Cl)nc(C)n4C)n(Cc3cc(F)c(F)c(F)c3)c2=O)c1 [II-0356] | < 0.1 | 1 to 10 |  | 
Cn1cnc(Cn2c(=O)nc(Nc3cc4cn(CC(F)F)nc4cc3F)n(Cc3cc(F)c(F)cc3F)c2=O)n1 [II-0359] | < 0.1 | 1 to 10 |  | 
Cc1cncc(-n2c(=O)nc(Nc3cc4c(cc3F)nc(C)n4C)n(Cc3cc(F)c(F)c(F)c3)c2=O)c1 [II-0360] | < 0.1 | 1 to 10 |  | 
Cn1cnc(Cn2c(=O)nc(Nc3cc4cn(C)nc4cc3Cl)n(Cc3cc(Cl)ccc3F)c2=O)n1 [II-0361] | < 0.1 | < 1 |  | 
Cc1cncc(-n2c(=O)nc(Nc3cc4cn(C)nc4cc3Cl)n(Cc3cc(Cl)ccc3F)c2=O)c1 [II-0362] | < 0.1 | < 1 |  | 
Cn1cnc(Cn2c(=O)nc(Nc3cc4cn(C)nc4cc3Cl)n(Cc3cc(Cl)c(F)cc3Cl)c2=O)n1 [II-0363] | < 0.1 | < 1 |  | 
Cc1cncc(-n2c(=O)nc(Nc3cc4cn(C)nc4cc3F)n(Cc3cc(C#N)ccc3Cl)c2=O)c1 [II-0364] | < 0.1 | < 1 |  | 
Cc1cc(F)c(C#N)cc1Cn1c(Nc2cc3cn(C)nc3cc2F)nc(=O)n(-c2cncc(Cl)c2)c1=O [II-0365] | < 0.1 | < 1 |  | 
Cc1cncc(-n2c(=O)nc(Nc3cc4cn(C5CC5)nc4cc3Cl)n(Cc3ccc(F)c(C#N)c3)c2=O)c1 [II-0366] | < 0.1 | < 1 |  | 
Cn1cc2cc(Nc3nc(=O)n(-c4cncc(Cl)c4)c(=O)n3Cc3cc(F)c(F)c(C#N)c3)c(F)cc2n1 [II-0367] | < 0.1 | < 1 |  | 
Cc1cncc(-n2c(=O)nc(Nc3cc4c(C#N)n(C)nc4cc3Cl)n(Cc3ccc(F)c(C#N)c3)c2=O)c1 [II-0368] | < 0.1 | 1 to 10 |  | 
Cc1cncc(-n2c(=O)nc(N3CC4CCC3CC4)n(Cc3cc(F)c(F)c(F)c3)c2=O)c1 [II-0369] |  |  | 0.63 | 1.16
CC[C@@H](Nc1nc(=O)n(Cc2ccc[nH]c2=O)c(=O)n1Cc1cc(F)c(F)c(F)c1)C(F)(F)F [II-0370] |  |  | 0.52 | 28.9
O=c1[nH]cccc1Cn1c(=O)nc(NCC2CCCC2)n(Cc2cc(F)c(F)c(F)c2)c1=O [II-0371] |  |  | 0.54 | 13.3
Cc1cncc(-n2c(=O)nc(N(C)C3CCCCC3)n(Cc3cc(F)c(F)c(F)c3)c2=O)c1 [II-0372] |  |  | 3.4 | 6.52
Cc1cncc(-n2c(=O)nc(N3CC4CCC3CO4)n(Cc3cc(F)c(F)c(F)c3)c2=O)c1 (stereo not drawn) [II-0375] |  |  | 3.8 | 21.6
Cc1cncc(-n2c(=O)nc(N3CC4(CCOC4)C3)n(Cc3cc(F)c(F)c(F)c3)c2=O)c1 [II-0376] |  |  | 1 | 7.13
Cc1cncc(-n2c(=O)nc(Nc3cc4cn(C)nc4cc3Cl)n(Cc3cc(Cl)c(F)cc3F)c2=O)c1 [II-0377] |  |  | 0.003 | 0.049
Cc1cncc(-n2c(=O)nc(Nc3cc4cn(C)nc4cc3Cl)n(Cc3ccc(F)c(C#N)c3)c2=O)c1 [II-0378] | < 0.1 | 1 to 10 |  | 
Cc1cc(F)c(C#N)cc1Cn1c(Nc2cc3cn(C)nc3cc2Cl)nc(=O)n(-c2cncc(N)c2)c1=O [II-0380] | < 0.1 | 1 to 10 |  | 

Compound | IC50 (SARS-CoV-2 3CL protease; given as class symbols) [µM] | EC50 (SARS-CoV-2; class symbols) [µM] | IC50 (SARS-CoV-2 3CL protease; RapidFire MS) [µM] | EC50 (SARS-CoV-2; CellTiter-Glo 2.0) [µM]
Cn1cc2cc(Nc3nc(=O)n(-c4cncc(N)c4)c(=O)n3Cc3cc(Cl)c(F)cc3F)c(Cl)cc2n1 [II-0381] | < 0.1 | < 1 |  | 
CNc1nc2cc(Cl)c(Nc3nc(=O)n(-c4cncc(C)c4)c(=O)n3Cc3ccc(F)c(C#N)c3)cc2s1 [II-0382] | < 0.1 | < 1 |  | 
CNc1nc2ccc(Nc3nc(=O)n(-c4cncc(Cl)c4)c(=O)n3Cc3cc(C#N)ccc3C)cc2s1 [II-0383] | < 0.1 | < 1 |  | 
Cn1cc2cc(Nc3nc(=O)n(-c4cncc(N)c4)c(=O)n3Cc3cc(F)c(F)c(Cl)c3)c(Cl)cc2n1 [II-0384] | < 0.1 | 1 to 10 |  | 
CNc1nc2cc(F)c(Nc3nc(=O)n(-c4cncc(C)c4)c(=O)n3Cc3cc(Cl)c(F)cc3F)cc2s1 [II-0385] | < 0.1 | < 1 |  | 
Cn1cc2cc(Nc3nc(=O)n(-c4cncc(N)c4)c(=O)n3Cc3cc(F)c(F)cc3F)c(Cl)cc2n1 [II-0386] | < 0.1 | 1 to 10 |  | 
CNc1nc2ccc(Nc3nc(=O)n(-c4cncc(Cl)c4)c(=O)n3Cc3cc(F)c(F)c(C#N)c3)cc2s1 [II-0387] | < 0.1 | < 1 |  | 
Cn1cc2cc(Nc3nc(=O)n(-c4cncc(C5CC5)c4)c(=O)n3Cc3ccc(F)c(C#N)c3)ccc2n1 [II-0388] | < 0.1 | < 1 |  | 
Cn1cc2cc(Nc3nc(=O)n(-c4cncc(C#N)c4)c(=O)n3Cc3ccc(F)c(C#N)c3)ccc2n1 [II-0389] |  |  | 0.045 | 4.4
CCc1cncc(-n2c(=O)nc(Nc3ccc4nn(C)cc4c3)n(Cc3ccc(F)c(C#N)c3)c2=O)c1 [II-0390] | < 0.1 | 1 to 10 |  | 
Cn1cc2cc(Nc3nc(=O)n(-c4cnc5ccccn45)c(=O)n3Cc3cc(F)c(F)c(F)c3)c(Cl)cc2n1 [II-0391] | < 0.1 | 1 to 10 |  | 
COc1ccc(Nc2nc(=O)n(-c3cc(C)cnn3)c(=O)n2Cc2cc(F)c(F)c(F)c2)cc1 [II-0392] |  |  | 1 | 20.8
COc1ccc(Nc2nc(=O)n(-c3cnc4sccn34)c(=O)n2Cc2cc(F)c(F)c(F)c2)cc1 [II-0393] |  |  | 3.1 | 6.08
COc1ccc(Nc2nc(=O)n(-c3cnnc(C)c3)c(=O)n2Cc2cc(F)c(F)c(F)c2)cc1 [II-0394] |  |  | 3.9 | 44.9
CNc1nc2cc(Cl)c(Nc3nc(=O)n(-c4cncc(C)c4)c(=O)n3Cc3cc(C#N)ccc3C)cc2s1 [II-0395] | < 0.1 | < 1 |  | 
CNc1nc2ccc(Nc3nc(=O)n(-c4cncc(Cl)c4)c(=O)n3Cc3cc(C#N)c(F)cc3C)cc2s1 [II-0396] | < 0.1 | < 1 |  | 
CNc1nc2ccc(Nc3nc(=O)n(-c4cncc(C)c4)c(=O)n3Cc3cc(F)c(F)c(C#N)c3)cc2s1 [II-0397] | < 0.1 | < 1 |  | 
CNc1nc2ccc(Nc3nc(=O)n(-c4cncc(Cl)c4)c(=O)n3Cc3cc(C#N)ccc3Cl)cc2s1 [II-0398] | < 0.1 | < 1 |  | 
CNc1nc2cc(F)c(Nc3nc(=O)n(Cc4ncn(C)n4)c(=O)n3Cc3cc(F)c(F)cc3F)cc2s1 [II-0400] | < 0.1 | 1 to 10 |  | 
COc1ccc(Nc2nc(=O)n(-c3nncc4cnn(C)c34)c(=O)n2Cc2cc(F)c(F)c(F)c2)cc1 [II-0401] |  |  | 0.29 | 2.33
Cc1cncc(-n2c(=O)nc(Nc3cc4cn(C)nc4cc3Cl)n(Cc3cc(F)c(F)cc3Cl)c2=O)c1 [II-0402] | < 0.1 | < 1 |  | 
Cc1cncc(-n2c(=O)nc(Nc3cc4cn(C)nc4cc3Cl)n(Cc3cc(F)c(F)cc3C)c2=O)c1 [II-0403] | < 0.1 | < 1 |  | 

From patent US12559474B2, “Triazine derivatives having virus replication inhibitory activity and pharmaceutical composition comprising the same” (priority 2021, dated 2026)
